SMILES strings stand for the structures.

We go through 12 molecules from patent US20090029391A1, “REAGENTS AND METHODS FOR THE DETERMINATION OF PK/ADME-TOX CHARACTERISTICS OF NEW CHEMICAL ENTITIES AND OF DRUG CANDIDATES” (priority 2007, published 2009).

One data set concerns the target bovine serum albumin (Bos taurus, UniProt P02769). The conditions noted are these: known drugs of Example 5, described as poor, medium or high binders; cited from earlier work.
The conditions of data set [1]: Williams and Lemke 2002; (1), (2) number the two pKa of doxycycline; cited from earlier work.
Data set [2] is described as follows: pKa by colloidal gold pH titration (ratio O.D. 620 nm/525 nm). The conditions noted are these: colloidal gold pH titration of 1 mM drugs, 1% DMSO, (2) number the two pKa of doxycycline; for pKa: buffered gold colloid (gold nanoparticle solution), pKa observed.
Experimental: (§1) A series of 50 mM buffers of pH 2-12 was then prepared (phosphate [pH 2, 3, 6, 7, 8], acetate [pH 4 and 5] and borate [pH 9, 10, 11, 12]), which were further diluted 5-fold with the gold colloid solution. The final pH of the 10 mM buffered colloid so obtained was then recorded. Drug solutions (10 μl, 100 mM in DMSO) were then pipeted in 1 mL of the buffered colloid and the mixture was vortex-mixed. After 30 minutes of incubation, the solutions were pipeted in 96-well polystyrene plates and the O.D. at 620 nm and 525 nm were recorded. The ratio O.D. 620 nm/O.D. 525 nm was calculated. This ratio relates to the agglutination of the colloid (i.e., the higher the ratio, the higher the agglutination). Typically, the ionization of a molecule creates charge(s) that may facilitate the agglutination of the colloid. Thus, titering a molecule with buffered gold colloids over a range of pHs can allow one to determine the ionization constant from the interpolated mid-point of the sigmoid curve drawn from agglutinated to unagglutinated colloid as a function of pH.
Another data set is described as follows: physchem. The conditions noted are these: pKa observed.
The test system of the next data set is serum albumin. The following applies: literature (Goodman and Gillman 1996); cited from earlier work.
Data set [3] is described as follows: Redox potential with PANI-COOH conductive polymer (O.D. 450 nm). Type of data set: physicochemical. The following applies: 100 μM drug, PANI-COOH at pH 4, 10 minutes room temperature; inferred from 450 nm signal. Here is the method:
The redox potential of known drugs were assayed. The known drug at a given final concentration (100 μM) was introduced in a buffered solution of a conductive polymer (poly[aniline-2-carboxylic acid], PANI-COOH) at pH 4. The solution was mixed and incubated at room temperature (10 minutes). The optical density was read at 450 nm. A sample blank containing the drug and phtalate buffer was prepared, incubated and read in the same way. The OD 450 nm of the blank solution was subtracted from the OD 450 nm of the conductive polymer reaction mixture. […] A linear relationship was observed between the 450 nm signal and the reduction potential of the known molecules (FIG. 15.), which allowed the inference of the reduction potential of NCEs.
Screening a library of 60 well-known drugs allowed identification of bromocriptine as a relatively strong […] (E=−364 mV), prazosin and chlorpropamide as relatively strong […] (E=747 and 848 mV), which is in agreement with literature data (Wardman P. (1989) Reduction potentials of one-electron couples involving free radicals in aqueous solution. J. Phys. Chem. Ref. Data 18, 1637-1755). Although a reductant drug may exert beneficial therapeutic effects, an oxidant may be toxic. […]

A further data set deals with human serum albumin (Homo sapiens, UniProt P02768). The conditions noted are these: literature (Westphal 1986); cited from earlier work.
Chain of human serum albumin (P02768 25-609): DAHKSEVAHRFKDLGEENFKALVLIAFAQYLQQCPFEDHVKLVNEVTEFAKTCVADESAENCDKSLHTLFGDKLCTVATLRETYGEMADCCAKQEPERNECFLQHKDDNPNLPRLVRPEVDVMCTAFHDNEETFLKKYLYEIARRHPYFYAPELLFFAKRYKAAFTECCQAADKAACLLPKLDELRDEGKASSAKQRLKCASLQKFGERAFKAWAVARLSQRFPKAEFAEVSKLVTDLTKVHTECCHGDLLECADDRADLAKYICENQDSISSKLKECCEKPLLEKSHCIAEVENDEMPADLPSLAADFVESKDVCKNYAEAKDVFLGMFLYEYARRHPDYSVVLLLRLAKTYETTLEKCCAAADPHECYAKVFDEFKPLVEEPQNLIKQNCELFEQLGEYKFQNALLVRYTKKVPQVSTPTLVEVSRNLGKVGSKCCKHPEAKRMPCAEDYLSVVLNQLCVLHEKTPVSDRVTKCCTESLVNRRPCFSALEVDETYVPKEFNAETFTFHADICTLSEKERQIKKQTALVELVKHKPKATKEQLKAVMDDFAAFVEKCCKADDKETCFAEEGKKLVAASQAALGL
Data set [4] is described as follows: Volume of distribution in humans. The conditions noted are these: human.
The conditions of data set [5]: literature (Goodman and Gillman 1996); cited from earlier work.

Chain of bovine serum albumin (P02769 25-607): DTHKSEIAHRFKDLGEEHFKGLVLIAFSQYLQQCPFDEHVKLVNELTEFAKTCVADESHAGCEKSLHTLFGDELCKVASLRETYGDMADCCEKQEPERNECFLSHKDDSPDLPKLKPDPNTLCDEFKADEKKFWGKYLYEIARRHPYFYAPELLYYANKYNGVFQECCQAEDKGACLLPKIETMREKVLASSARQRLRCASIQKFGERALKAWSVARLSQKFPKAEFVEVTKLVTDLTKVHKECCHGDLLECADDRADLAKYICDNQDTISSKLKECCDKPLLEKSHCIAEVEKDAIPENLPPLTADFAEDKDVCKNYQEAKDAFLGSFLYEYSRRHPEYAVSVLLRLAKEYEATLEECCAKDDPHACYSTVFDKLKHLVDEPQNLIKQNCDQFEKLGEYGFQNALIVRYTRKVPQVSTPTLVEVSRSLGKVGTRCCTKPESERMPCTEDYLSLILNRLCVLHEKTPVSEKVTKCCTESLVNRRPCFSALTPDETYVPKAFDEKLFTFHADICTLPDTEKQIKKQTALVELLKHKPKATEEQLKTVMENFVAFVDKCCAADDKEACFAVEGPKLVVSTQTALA
Experimental for physchem: as §1

On to `CC(=O)Oc1ccccc1C(=O)O` [Aspirin, Acetylsalicylic acid], for which the “binder class to the protein (bovine serum albumin)” value (“binder class to the protein” for short) at bovine serum albumin was “poor binders”. On to `CN(C)CCC(c1ccc(Cl)cc1)c1ccccn1` (stereo not shown) [Chlorpheniramine], for which the “binder class to the protein” value at bovine serum albumin was “medium binders”. In the case of `Nc1ccc(S(=O)(=O)c2ccc(N)cc2)cc1` [Dapsone], the pKa from reference in data set [1] was 2.4. Moreover, the pKa in data set [2] is 3.9. Turning to `CC[C@H]1OC(=O)[C@H](C)[C@@H](O[C@H]2C[C@@](C)(OC)[C@@H](O)[C@H](C)O2)[C@H](C)[C@@H](O[C@@H]2O[C@H](C)C[C@H](N(C)C)[C@H]2O)[C@](C)(O)C[C@@H](C)C(=O)[C@H](C)[C@@H](O)[C@]1(C)O` [Erythromycine, Erythromycin], the “binder class to the protein” value at bovine serum albumin is “medium binders”. In addition, in data set [2], the pKa came out at 6.9. For the molecule `CCOc1ccc2ccccc2c1C(=O)N[C@@H]1C(=O)N2[C@@H]1SC(C)(C)[C@@H]2C(=O)O` [Nafcillin], the pKa in “physchem” is 3. As to `CC(=O)Nc1ccc(O)cc1` [Paracetamol], the pKa from reference in [1] is given as 9.4. In addition, the pKa observed in data set [2] is 9.5. Regarding `C=C[C@H]1C[N@@]2CC[C@H]1C[C@@H]2[C@@H](O)c1ccnc2ccc(OC)cc12` [Quinidine], in data set [2], the pKa amounted to 7.4. Turning to `C=CC1=C(C)/C(=C/c2[nH]c(Cc3[nH]c(/C=C4\NC(=O)C(C)=C4C=C)c(C)c3CCC(=O)O)c(CCC(=O)O)c2C)NC1=O` [bilirubin], the “bound by serum albumin / by the protein in plasma” value with serum albumin is listed as ~100%.

With `CCCNC(=O)NS(=O)(=O)c1ccc(Cl)cc1` [chlorpropamide], the “reduction potential E” value in data set [3] came to 848 mV. As to `C[C@H]1O[C@@H](O[C@H]2[C@@H](O)C[C@H](O[C@H]3[C@@H](O)C[C@H](O[C@H]4CC[C@@]5(C)[C@H](CC[C@@H]6[C@@H]5C[C@@H](O)[C@]5(C)[C@@H](C7=CC(=O)OC7)CC[C@]65O)C4)O[C@@H]3C)O[C@@H]2C)C[C@H](O)[C@@H]1O` [digoxin, Digoxin], the “apparent affinity for human serum albumin determined by dialysis” value at human serum albumin was 1.85.10^5 liters per mole. `COc1cc2nc(N3CCN(C(=O)c4ccco4)CC3)nc(N)c2cc1OC` [prazosin]: the “reduction potential E” value in data set [3] was found to be 747 mV. On to `Cn1c(=O)c2[nH]cnc2n(C)c1=O` [theophylline], for which, in [4], the Vd – broadly, the apparent volume that relates the amount in the body to the concentration in plasma or blood – was found to be 0.551 L/kg. In addition, the “volume of distribution observed experimentally” value in [5] is on record as 0.50±0.16 liters per Kg.
